Reference: PubChem BioAssay AID434987 (Southern Research Specialized Biocontainment Screening …, 2010)
Activity calls are given as the source filed them. No rule for the calls is given here.

Tested on: M. tuberculosis H37Rv growth inhibition with meropenem
Test: dose response, H37Rv, with and without meropenem (AID 434987);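 also: growth over 7 days at 37 °C before Alamar Blue read on day 9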
[1] = M. tuberculosis H37Rv growth inhibition, measured here: IC50 without meropenem
[2] = M. tuberculosis H37Rv growth inhibition, measured here: IC90 without meropenem
[3] = measured here: IC90 with meropenem

| SMILES | IC50 | IC50 [1] | IC90 [2] | IC90 [3] |
| --- | --- | --- | --- | --- |
| Cc1ccc(CNC(=O)c2cn(C)c3ccc(S(=O)(=O)N4CCOCC4)cc3c2=O)cc1 | > 50 µM (inactive) | > 100 µM | > 100 µM | > 50 µM |
| COc1ccc(-c2cc3nc(C)cc(N4CC(C)CC(C)C4)n3n2)cc1 (stereo not drawn) | > 100 µM (inactive) | > 100 µM | > 100 µM | > 100 µM |
| CCCCCCC(=O)Nc1nc(C)c(-c2csc(Nc3cc(Cl)ccc3OC)n2)s1 | 42.3 µM (inactive) | 51.1 µM | > 100 µM | > 100 µM |
| COc1ccc(NC(=O)CN2CCN(C3c4ccccc4-c4ccccc43)CC2)c(OC)c1 | > 100 µM (inactive) | > 100 µM | > 100 µM | > 100 µM |
| Nc1c(C(=O)NC2CC2)c2nc3ccccc3nc2n1-c1ccc2c(c1)OCO2 | 95 µM (inactive) | 88.5 µM | > 100 µM | > 100 µM |
| O=C1c2cccc3c(N4CCCCC4)ccc(c23)C(=O)N1c1ccccn1 | 84.8 µM (inactive) | > 100 µM | > 100 µM | > 100 µM |
| Cc1ccc(OCC(=O)N/N=C/c2cn(C)c3ccccc23)cc1 | 24.7 µM | > 100 µM | > 100 µM | > 100 µM |
| O=C(NCCC1=CCCCC1)c1ccc(Cl)c([N+](=O)[O-])c1 | 25.9 µM (inactive) | 54.3 µM | > 100 µM | 30.2 µM |
| Cc1ccc(NC(=O)CCS(=O)(=O)c2cccc3nonc23)cc1 | 16.8 µM (inactive) | 31.1 µM | > 100 µM | > 100 µM |
| CN(c1ccc(OCC(=O)OCC(=O)c2c(N)n(C)c(=O)n(C)c2=O)cc1)S(=O)(=O)c1ccc2ccccc2c1 | 26.2 µM | > 100 µM | > 100 µM | > 100 µM |
| CCC(=O)N1CCN(c2ccc(NC(=S)NC(=O)c3ccc(OC)c([N+](=O)[O-])c3)cc2)CC1 | 40.2 µM (inactive) | 79.6 µM | > 100 µM | 67.8 µM |
| N#Cc1ccc(C23CC4(C2)[C@H](CN(Cc2cccnc2)[C@@H]4c2ccccc2)C3c2ccccc2)cc1 (stereo partly drawn) | 56.2 µM (inactive) | 72.8 µM | > 100 µM | > 100 µM |
| COc1ccc(OC)c(NC(=O)CS(=O)(=O)c2ccccc2)c1 | 12.1 µM (inactive) | 28.7 µM | > 100 µM | 14.3 µM |
| O=C(CSc1nnc(COc2ccccc2)o1)N1CCN(c2ccccc2)CC1 | > 100 µM (inactive) | > 100 µM | > 100 µM | > 100 µM |
| Cc1ccc(CC(=O)Nc2nc3ccccc3[nH]2)cc1C | 6.31 µM | > 100 µM | > 100 µM | > 25 µM |
| CCSc1nc2ccccc2c(=O)n1CCc1ccc(OC)c(OC)c1 | > 100 µM (inactive) | > 100 µM | > 100 µM | > 100 µM |
| COc1cc(/C=N/NC(N)=S)ccc1OC(=O)c1ccc(C)cc1 | > 100 µM (inactive) | > 100 µM | > 100 µM | > 100 µM |
| CCCc1cc(C(=O)Nc2ccc(C(C)=O)cc2)no1 | 11.7 µM (inactive) | 24.4 µM | > 100 µM | 48.8 µM |
| CC1(C)Cc2c(C#N)c(SCc3ccccc3)nc(N3CCOCC3)c2CO1 | > 100 µM (inactive) | > 100 µM | > 100 µM | > 100 µM |

| SMILES | IC50 | IC50 [1] | IC90 [2] | IC90 [3] |
| --- | --- | --- | --- | --- |
| O=C(COc1ccc2ccccc2c1)Nc1nc2ccccc2[nH]1 | 5.83 µM | 62 µM | > 100 µM | > 100 µM |
| Cc1cccc(C)c1OCC(=O)NNC(=O)CNC(=O)c1ccc(OC(F)F)cc1 | 88.3 µM (inactive) | > 100 µM | > 100 µM | 98.1 µM |
| Cc1ccc(C)c(SCC(=O)OCC(=O)N2CC(C)OC(C)C2)c1 (stereo not drawn) | 25.5 µM | > 100 µM | > 100 µM | > 100 µM |
| COc1ccccc1NC(=O)Nc1nn(C)c2cccc(OC)c12 | 4.18 µM | 21.1 µM | > 100 µM | > 100 µM |
| CCCCCn1c(=O)c(C(=O)Nc2cnccn2)c(O)c2ccccc21 | 10.8 µM (inactive) | 13.7 µM | 16.4 µM | 13.8 µM |
| Cc1cc(C(=O)Nc2ccc(Br)cc2F)n(-c2ccccc2)n1 | > 100 µM (inactive) | > 100 µM | > 100 µM | > 100 µM |
| COc1ccc(-c2sc3cc(OC)c(OC)cc3c2C#CCCO)cc1 | > 100 µM (inactive) | > 50 µM | > 50 µM | > 100 µM |
| COc1ccc(Br)cc1/C=N/NC(=O)CNC(=O)/C=C/c1ccccc1 | > 100 µM (inactive) | > 100 µM | > 100 µM | > 100 µM |
| COc1ccc2c(C)nc(Nc3nc(-c4ccccc4)cc(=O)[nH]3)nc2c1 | > 100 µM (inactive) | > 100 µM | > 100 µM | > 100 µM |
| O=S1(=O)CCO[C@H]2Cc3ccccc3[C@H]2N1Cc1ccccc1 | > 100 µM (inactive) | > 100 µM | > 100 µM | > 100 µM |
| Nc1nc2ccccc2n1C(=O)c1cccs1 | 5.84 µM | 42.8 µM | > 100 µM | > 100 µM |
| N#Cc1c(C(F)(F)F)cc(-c2ccccc2)nc1SCC(=O)Nc1sc2c(c1C#N)CCC2 | > 100 µM (inactive) | > 100 µM | > 100 µM | > 100 µM |
| O=C(COc1ccccc1)NNC(=O)c1cc2ccccc2oc1=O | 15.3 µM | > 100 µM | > 100 µM | > 100 µM |
| COc1ccc(OC)c(-c2cc(C(=O)Nc3c(C)nn(Cc4ccccc4C)c3C)no2)c1 | > 100 µM (inactive) | > 100 µM | > 100 µM | > 100 µM |
| C#CCOc1c(Cl)cc(/C=N/NC(N)=S)cc1OCC | 87.6 µM (inactive) | > 100 µM | > 100 µM | > 100 µM |
| CCOC(=O)c1sc2ccccc2c1NC(=O)c1coc2ccccc2c1=O | > 100 µM (inactive) | > 100 µM | > 100 µM | > 100 µM |
| Cn1c(SCC(=O)OC2CCCCC2)nnc1-c1ccc2c(c1)OCO2 | 7.93 µM | 30.5 µM | 70 µM | 34.9 µM |
| O=c1oc(-c2ccco2)nc2sc3c(c12)CCCCC3 | 9.28 µM | 67.6 µM | 90.2 µM | 38.5 µM |
| C=CCSc1nccc(-c2nn(-c3ccc(C)cc3)ccc2=O)n1 | 94.1 µM (inactive) | > 100 µM | > 100 µM | > 100 µM |

| SMILES | IC50 | IC50 [1] | IC90 [2] | IC90 [3] |
| --- | --- | --- | --- | --- |
| CCC(CC)C(=O)Nc1ccc(Sc2ccc([N+](=O)[O-])cc2)cc1 | > 100 µM (inactive) | > 100 µM | > 100 µM | > 100 µM |
| Cc1cc(C)n(-c2nc3ccccc3c(=O)n2OCC(=O)N(C)C)n1 | 7.74 µM | 79.2 µM | > 100 µM | 23.3 µM |
| Nc1ccc(C(=O)O)c(O)c1 | 0.25 µM (inactive) | < 0.2 µM | 7.65 µM | 1.88 µM |
| COc1cccc(/C=C/c2[nH]c(=O)[nH]c(=O)c2[N+](=O)[O-])c1O | 9.24 µM | 24.2 µM | 26.6 µM | 15.9 µM |
| COc1cc2c(=O)n(Cc3ccco3)c(=O)n(CC(=O)c3cccc(Br)c3)c2cc1OC | > 100 µM (inactive) | > 100 µM | > 100 µM | > 100 µM |
| Cc1ccc(SCCNC(=O)c2ccc(C)c([N+](=O)[O-])c2)cc1 | 49.6 µM (inactive) | > 100 µM | > 100 µM | 54 µM |
| CCOC(=O)c1c(C)oc2c1c(CN1CCN(C(=O)OCC)CC1)c(O)c1ccccc12 | 51.5 µM (inactive) | 51.2 µM | > 100 µM | > 100 µM |
| C=CCN=c1scc(-c2ccc(F)cc2)n1/N=C/c1ccccn1 | 33 µM | 92.8 µM | > 100 µM | 71.7 µM |
| Cc1ccc(-n2c(SCC(=O)NCc3ccco3)nc3sc4c(c3c2=O)CC(C)(C)SC4)cc1 | > 100 µM (inactive) | > 100 µM | > 100 µM | > 100 µM |
| COc1cc(-c2nc(S(=O)(=O)c3ccc(C)cc3)c(N3CCOCC3)o2)cc(OC)c1OC | > 100 µM (inactive) | > 100 µM | > 100 µM | > 100 µM |
| NC(=O)CN1C(=O)C(O)(CC(=O)/C=C\C=C\c2ccccc2)c2ccccc21 (stereo not drawn) | > 100 µM (inactive) | > 100 µM | > 100 µM | > 100 µM |
| CC1CN(C2CCCCC2)c2nc3c(c(=O)[nH]c(=O)n3C)n2C1 (stereo not drawn) | > 100 µM (inactive) | > 100 µM | > 100 µM | > 100 µM |
| Cc1ccc(C2=NN3C(=O)c4ccccc4C3C2)cc1 (stereo not drawn) | 11.1 µM | 49 µM | > 100 µM | 35.1 µM |
| CCOc1cc(N2CCOCC2)c(OCC)cc1NC(=O)c1cc(C)cc(C)c1 | 23.7 µM | > 100 µM | > 100 µM | > 100 µM |
| Cc1cccnc1NC(=O)c1cc2ccccc2oc1=O | 46.7 µM (inactive) | > 100 µM | > 100 µM | > 100 µM |
| O=C(Nc1ccccc1Br)c1cccc2ccccc12 | > 100 µM (inactive) | > 100 µM | > 100 µM | > 100 µM |
| CC1(c2ccc([N+](=O)[O-])cc2)NC(=O)N(CC(=O)c2ccc3c(c2)OCO3)C1=O (stereo not drawn) | > 100 µM (inactive) | > 100 µM | > 100 µM | > 100 µM |
| COC(=O)c1c(CSc2cccc(C)c2)noc1C(=O)NCc1ccco1 | > 100 µM (inactive) | > 100 µM | > 100 µM | > 100 µM |
| O=C(CCC(=O)Nc1ccccc1)NNC(=O)c1ccco1 | > 100 µM (inactive) | > 100 µM | > 100 µM | > 100 µM |
